Measured values from US20250179103A1, “6-OXODECAHYDROPYRROLO[1,2-A][1,5]DIAZOCINE AND 6-OXODECAHYDRO-4H-PYRROLO[2,1-D][1,5]THIAZOCINE DERIVATIVES AS STAT3 AND STAT6 MODULATORS FOR THE TREATMENT OF CANCER AND INFLAMMATORY CONDITIONS” (Recludix Pharma, Inc., priority 2022, published 2025).

Tests used:
[1] = target: T1, Recombinant STAT3 protein (STAT3(G127-I722)) (Homo sapiens, UniProt P40763); assay: STAT3 Fluorescence Polarization (FP) Assay; assay type: binding; settings: STAT3(G127-I722) 25 nM, probe 5-FAM-GpYLPQTV-NH2 2 nM, 45-minute incubation
T1 construct: Recombinant STAT3 protein (STAT3(G127-I722))
T1 sequence (P40763 127-722): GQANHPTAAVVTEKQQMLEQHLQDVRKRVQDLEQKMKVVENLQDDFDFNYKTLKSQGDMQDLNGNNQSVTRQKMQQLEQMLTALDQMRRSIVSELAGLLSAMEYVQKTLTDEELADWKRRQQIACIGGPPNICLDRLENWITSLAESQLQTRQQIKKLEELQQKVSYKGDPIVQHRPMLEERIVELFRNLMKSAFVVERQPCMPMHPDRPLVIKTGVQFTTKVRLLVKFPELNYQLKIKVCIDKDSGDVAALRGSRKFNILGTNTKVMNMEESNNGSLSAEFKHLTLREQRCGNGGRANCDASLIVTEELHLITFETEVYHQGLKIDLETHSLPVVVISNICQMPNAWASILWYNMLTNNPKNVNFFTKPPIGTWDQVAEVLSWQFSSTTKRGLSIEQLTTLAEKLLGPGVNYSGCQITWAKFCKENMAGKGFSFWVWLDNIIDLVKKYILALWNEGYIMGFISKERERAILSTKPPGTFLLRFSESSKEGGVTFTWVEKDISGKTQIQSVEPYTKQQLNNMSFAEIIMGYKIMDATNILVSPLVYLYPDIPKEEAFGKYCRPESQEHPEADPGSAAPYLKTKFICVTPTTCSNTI
Procedure, shortened: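 STAT3(G127-I722), 25 nM, was mixed with 2 nM 5-FAM-GpYLPQTV-NH2 probe in HEPES pH 7.4 buffer with 1% DMSO and serially diluted compound. FP (mP) was read after 45 min at room temperature. IC50 came from nonlinear regression.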

[2] = target: T2, Recombinant STAT6 protein (STAT6(W123-T658)) (Homo sapiens, UniProt P42226); assay: STAT6 Fluorescence Polarization (FP) Assay; assay type: binding; settings: STAT6(W123-T658) 250 nM, probe 5-FAM-ApYKPFQDLI-NH2 2 nM, 45-minute incubation
T2 construct: Recombinant STAT6 protein (STAT6(W123-T658))
T2 sequence (P42226 123-658): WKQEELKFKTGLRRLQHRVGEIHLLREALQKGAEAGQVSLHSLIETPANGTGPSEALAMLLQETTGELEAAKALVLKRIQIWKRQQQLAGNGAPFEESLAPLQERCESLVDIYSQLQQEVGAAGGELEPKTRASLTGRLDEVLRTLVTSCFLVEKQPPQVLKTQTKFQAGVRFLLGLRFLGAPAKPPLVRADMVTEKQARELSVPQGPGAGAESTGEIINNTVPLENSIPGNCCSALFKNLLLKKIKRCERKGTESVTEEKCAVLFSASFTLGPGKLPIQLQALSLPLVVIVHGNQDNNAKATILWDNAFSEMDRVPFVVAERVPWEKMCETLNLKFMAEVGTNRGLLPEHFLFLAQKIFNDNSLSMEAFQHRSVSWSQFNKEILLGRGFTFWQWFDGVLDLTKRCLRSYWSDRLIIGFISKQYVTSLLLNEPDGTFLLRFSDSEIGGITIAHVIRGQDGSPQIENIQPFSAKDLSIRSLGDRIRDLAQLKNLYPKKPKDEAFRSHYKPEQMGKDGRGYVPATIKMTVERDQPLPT
Procedure, shortened: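 Displacement of a fluorescent phosphotyrosine peptide (5-FAM-ApYKPFQDLI-NH2, 2 nM) from STAT6(W123-T658) (250 nM), 1% DMSO, pH 7.4 HEPES buffer. After 45 min at room temperature, polarization (mP) was plotted versus log compound concentration and fitted by nonlinear regression to give IC50.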

| SMILES | IC50 [1] [nM] | IC50 [2] [nM] |
| --- | --- | --- |
| O=C(N[C@H]1CN(Cc2ccn3ccnc3c2)CC[C@H]2CC[C@@H](C(=O)N3CC(c4cccnc4)C3)N2C1=O)c1cc2cc(C(F)(F)P(=O)(O)O)ccc2s1 [Compound 273, (difluoro(2-(((5S,8S,10aR)-3-(imidazo[1,2-a]pyridin-7-ylmethyl)-6-oxo-8-(3-(pyridin-3-yl)azetidine-1-carbonyl)decahydropyrrolo[1,2-a][1,5]diazocin-5-yl)carbamoyl)benzo[b]thiophen-5-yl)methyl)phosphonic acid] | ≤ 100 | 3000 to 30000 |
| CC(=O)N1CC[C@H]2CC[C@@H](C(=O)N3Cc4cnn(-c5ccccc5)c4C3)N2C(=O)[C@@H](NC(=O)c2cc3cc(C(F)(F)P(=O)(O)O)ccc3s2)C1 [Compound 86, ((2-(((5S,8S,10aR)-3-acetyl-6-oxo-8-(1-phenyl-1,4,5,6-tetrahydropyrrolo[3,4-c]pyrazole-5-carbonyl)decahydropyrrolo[1,2-a][1,5]diazocin-5-yl)carbamoyl)benzo[b]thiophen-5-yl)difluoromethyl)phosphonic acid] | ≤ 100 | 300 to 3000 |
| CC(=O)N1CC[C@H]2CC[C@@H](C(=O)N(C)c3ccccc3)N2C(=O)[C@@H](NC(=O)c2cc3cc(C(C)(C)P(=O)(O)O)ccc3s2)C1 [Compound 21, (2-(2-(((5S,8S,10aR)-3-acetyl-8-(methyl(phenyl)carbamoyl)-6-oxodecahydropyrrolo[1,2-a][1,5]diazocin-5-yl)carbamoyl)benzo[b]thiophen-5-yl)propan-2-yl)phospnoic aicd] | > 10000 | > 30000 |
| CC(=O)N1CC[C@H]2CC[C@@H](C(=O)Nc3ccc(OCCN(C)C)cc3)N2C(=O)[C@@H](NC(=O)c2cc3cc(C(F)(F)P(=O)(O)O)ccc3s2)C1 [Compound 75, ((2-(((5S,8S,10aR)-3-acetyl-8-((4-(2-(dimethylamino)ethoxy)phenyl)carbamoyl)-6-oxodecahydropyrrolo[1,2-a][1,5]diazocin-5-yl)carbamoyl)benzo[b]thiophen-5-yl)difluoromethyl)phosphonic acid] | 1000 to 10000 | 3000 to 30000 |
| O=C(N[C@H]1CS(=O)(=O)CC[C@H]2CC[C@@H](C(=O)N3CC(c4cccnc4)C3)N2C1=O)c1cc2cc(C(F)(F)P(=O)(O)O)ccc2s1 [Compound 404, ((2-(((5R,8S,10aR)-3,3-dioxido-6-oxo-8-(3-(pyridin-3-yl)azetidine-1-carbonyl)octahydro-4H-pyrrolo[2,1-d][1,5]thiazocin-5-yl)carbamoyl)benzo[b]thiophen-5-yl)difluoromethyl) phosphonic acid] | ≤ 100 | 3000 to 30000 |
| CC(=O)N1CC[C@H]2CC[C@@H](C(=O)N3CC(C(=O)N4CCOCC4)C3)N2C(=O)[C@@H](NC(=O)c2cc3cc(C(F)(F)P(=O)(O)O)ccc3s2)C1 [Compound 77, ((2-(((5S,8S,10aR)-3-acetyl-8-(3-(morpholine-4-carbonyl)azetidine-1-carbonyl)-6-oxodecahydropyrrolo[1,2-a][1,5]diazocin-5-yl)carbamoyl)benzo[b]thiophen-5-yl)difluoromethyl)phosphonic acid] | 100 to 1000 | 3000 to 30000 |
| N#Cc1cccc(C2CN(C(=O)[C@@H]3CC[C@@H]4CCN(Cc5ncccn5)C[C@H](NC(=O)c5cc6cc(CP(=O)(O)O)ccc6s5)C(=O)N43)C2)n1 [Compound 399, ((2-(((5S,8S,10aR)-8-(3-(6-cyanopyridin-2-yl)azetidine-1-carbonyl)-6-oxo-3-(pyrimidin-2-ylmethyl)decahydro-pyrrolo[1,2-a][1,5]diazocin-5-yl)carbamoyl)benzo[b]thiophen-5-yl)methyl) phosphonic acid] | 100 to 1000 | > 30000 |
| COc1ccc2c(C(=O)N3CC[C@H]4CC[C@@H](C(=O)N5CCOCC5)N4C(=O)[C@@H](NC(=O)c4ccc5ccc(C(F)P(=O)(O)O)cc5c4)C3)noc2c1 (stereo partly drawn) [Compound 363, (fluoro(7-(((5S,8S,10aR)-3-(6-methoxybenzoyl[d]isoxazole-3-carbonyl)-8-(morpholine-4-carbonyl)-6-oxodecahydropyrrolo [1,2-a][1,5]diazocin-5-yl)carbamoyl)naphthalen-2-yl)methyl)phosphonic acid] | > 10000 | ≤ 300 |
| C[C@H](Cc1ccccc1)C(=O)N1CC[C@H]2CC[C@@H](C(=O)N3CCCC3)N2C(=O)[C@@H](NC(=O)c2cc3cc(C(F)(F)P(=O)(O)O)ccc3s2)C1 [Compound 259, (difluoro(2-(((5S,8S,10aR)-3-((R)-2-methyl-3-phenylpropanoyl)-6-oxo-8-(pyrrolidine-1-carbonyl)decahydropyrrolo[1,2-a][1,5]diazocin-5-yl)carbamoyl)benzo[b]thiophen-5-yl)methyl)phosphonic acid] | 100 to 1000 | 300 to 3000 |

Further lines, results first:

| IC50 [1] [nM] | IC50 [2] [nM] | SMILES |
| --- | --- | --- |
| 100 to 1000 | ≤ 300 | N#Cc1ccccc1-c1ccc(NC(=O)[C@@H]2CC[C@@H]3CCN(C(=O)Cc4ccccc4)C[C@H](NC(=O)c4cc5cc(C(F)(F)P(=O)(O)O)ccc5[nH]4)C(=O)N32)cc1 [Compound 266, ((2-(((5S,8S,10aR)-8-((2′-cyano-[1,1′-biphenyl]-4-yl)carbamoyl)-6-oxo-3-(2-phenylacetyl)decahydropyrrolo[1,2-a][1,5]diazocin-5-yl)carbamoyl)-1H-indol-5-yl)difluoromethyl)phosphonic acid] |
| 1000 to 10000 | ≤ 300 | CC(=O)N1CC[C@H]2CC[C@@H](C(=O)N3C[C@@H](C#N)[C@H](c4ccccc4)C3)N2C(=O)[C@@H](NC(=O)c2cc3cc(C(F)(F)P(=O)(O)O)ccc3[nH]2)C1 (single isomer, unassigned) [Compound 139, ((2-(((5S,8S,10aR)-3-acetyl-8-((3S,4R or 3R,4S)-3-cyano-4-phenylpyrrolidine-1-carbonyl)-6-oxodecahydropyrrolo[1,2-a][1,5]diazocin-5-yl)carbamoyl)-1H-indol-5-yl)difluoromethyl)phosphonic acid] |
| > 10000 | ≤ 300 | O=C(N[C@H]1CN(C(=O)c2noc3ccc(Cl)cc23)CC[C@H]2CC[C@@H](C(=O)N3CCOCC3)N2C1=O)c1ccc2ccc(C(F)P(=O)(O)O)cc2c1 (stereo partly drawn) [Compound 365, ((7-(((5S,8S,10aR)-3-(5-chlorobenzo[d]isoxazole-3-carbonyl)-8-(morpholine-4-carbonyl)-6-oxodecahydro-pyrrolo[1,2-a][1,5]diazocin-5-yl)carbamoyl)naphthalen-2-yl)fluoromethyl) phosphonic acid] |
| 1000 to 10000 | ≤ 300 | CC(=O)N1CC[C@H]2CC[C@@H](C(=O)N3C[C@@H](C#N)[C@H](c4cc[nH]c(=O)c4)C3)N2C(=O)[C@@H](NC(=O)c2ccc3ccc(C(F)(F)P(=O)(O)O)cc3c2)C1 (single isomer, unassigned) [Compound 39, ((7-(((5S,8S,10aR)-3-acetyl-8-((3S,4R or 3R,4S)-3-cyano-4-(2-oxo-1,2-dihydropyridin-4-yl)pyrrolidine-1-carbonyl)-6-oxodecahydropyrrolo[1,2-a][1,5]diazocin-5-yl)carbamoyl)naphthalen-2-yl)difluoromethyl)phosphonic acid] |
| 1000 to 10000 | ≤ 300 | CC(=O)N1CC[C@H]2CC[C@@H](C(=O)N3C[C@H](c4ccccc4)[C@@H](C#N)C3)N2C(=O)[C@@H](NC(=O)c2cc3cc(C(F)(F)P(=O)(O)O)ccc3s2)C1 [Compound 124, ((2-(((5S,8S,10aR)-3-acetyl-8-((3R,4S)-3-cyano-4-phenylpyrrolidine-1-carbonyl)-6-oxodecahydropyrrolo[1,2-a][1,5]diazocin-5-yl)carbamoyl)benzo[b]thiophen-5-yl)difluoromethyl)phosphonic acid] |
| 100 to 1000 | 300 to 3000 | CC(=O)N1CC[C@H]2CC[C@@H](C(=O)N3CC(C(=O)N4CCCCC4)C3)N2C(=O)[C@@H](NC(=O)c2cc3cc(C(F)(F)P(=O)(O)O)ccc3[nH]2)C1 [Compound 128, ((2-(((5S,8S,10aR)-3-acetyl-6-oxo-8-(3-(piperidine-1-carbonyl)azetidine-1-carbonyl)decahydropyrrolo[1,2-a][1,5]diazocin-5-yl)carbamoyl)-1H-indol-5-yl)difluoromethyl)phosphonic acid] |
| 1000 to 10000 | 300 to 3000 | CC(=O)N1CC[C@H]2CC[C@@H](C(=O)N3CC[C@@H](c4ccccc4)[C@H](C#N)C3)N2C(=O)[C@@H](NC(=O)c2cc3cc(C(F)(F)P(=O)(O)O)ccc3s2)C1 (relative stereo) [Compound 154, ((2-(((5S,8S,10aR)-3-acetyl-8-((rel-trans)-3-cyano-4-phenylpiperidine-1-carbonyl)-6-oxodecahydropyrrolo[1,2-a][1,5]diazocin-5-yl)carbamoyl)benzo[b]thiophen-5-yl)difluoromethyl)phosphonic acid] |
